Data set [1] in a line: Human microsome stability assay. The note with it: 1 μM test compound, 0.5 mg/mL liver microsomal protein, 37° C. It is filed as in vitro ADME. On the technique in general: Liver microsomes are a subcellular fraction often used to study metabolism.
Data set [2] addresses T1, TLR9 (Homo sapiens, UniProt Q9NR96).
T1 sequence (Q9NR96 26-1032): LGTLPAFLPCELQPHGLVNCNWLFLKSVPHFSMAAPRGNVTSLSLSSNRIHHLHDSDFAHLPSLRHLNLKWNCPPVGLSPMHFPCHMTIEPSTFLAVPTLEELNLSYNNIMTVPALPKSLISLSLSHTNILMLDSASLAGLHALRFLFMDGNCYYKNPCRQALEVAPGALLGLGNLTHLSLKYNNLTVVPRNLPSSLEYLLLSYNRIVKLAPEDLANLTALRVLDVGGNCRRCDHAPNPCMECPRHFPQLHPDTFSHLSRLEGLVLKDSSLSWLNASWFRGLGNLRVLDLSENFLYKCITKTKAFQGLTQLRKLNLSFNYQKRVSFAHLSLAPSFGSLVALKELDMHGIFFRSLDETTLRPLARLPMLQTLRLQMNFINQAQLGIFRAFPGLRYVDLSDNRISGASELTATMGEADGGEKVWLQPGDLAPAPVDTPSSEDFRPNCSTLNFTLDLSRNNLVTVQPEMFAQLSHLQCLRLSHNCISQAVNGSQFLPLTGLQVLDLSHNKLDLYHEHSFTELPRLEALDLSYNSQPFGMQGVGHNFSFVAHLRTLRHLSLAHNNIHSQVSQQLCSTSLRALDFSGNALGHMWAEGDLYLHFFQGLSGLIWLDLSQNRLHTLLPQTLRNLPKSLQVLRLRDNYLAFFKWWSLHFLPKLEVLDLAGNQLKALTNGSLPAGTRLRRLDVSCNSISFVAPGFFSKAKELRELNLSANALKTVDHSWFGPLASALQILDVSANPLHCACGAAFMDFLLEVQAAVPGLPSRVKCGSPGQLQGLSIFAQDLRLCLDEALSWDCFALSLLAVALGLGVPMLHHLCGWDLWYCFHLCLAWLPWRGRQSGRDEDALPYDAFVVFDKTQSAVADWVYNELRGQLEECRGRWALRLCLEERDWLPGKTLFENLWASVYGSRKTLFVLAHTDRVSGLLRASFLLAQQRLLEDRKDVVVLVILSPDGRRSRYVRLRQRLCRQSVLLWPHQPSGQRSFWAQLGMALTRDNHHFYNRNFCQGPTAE
In words: HEK293-Blue-hTLR-9 cells assay. Type of data set: cell-based. Further details: host or cells: HEK293 (HEK-Blue hTLR9). The note with it: HEK293-Blue-hTLR9 cells, ODN2006 stimulation, 20 hrs; read-out: HEK/hTLR9 IC50. From the text: A stable HEK293-Blue-hTLR-9 cell line was purchased from InvivoGen (Cat. #: hkb-htlr9, San Diego, California, USA). These cells were originally designed for studying the stimulation of human TLR9 by monitoring the activation of NF-κB. A SEAP (secreted embryonic alkaline phosphatase) reporter gene was placed under the control of the IFN-β minimal promoter fused to five NF-κB and AP-1-binding sites. The SEAP was induced by activating NF-κB and AP-1 via stimulating HEK-Blue hTLR9 cells with TLR9 ligands. Therefore the reporter expression was declined by TLR9 antagonist under the stimulation of a ligand, such as ODN2006 (Cat. #: tlrl-2006-1, Invivogen, San Diego, California, USA), for incubation of 20 hrs. The cell culture supernatant SEAP reporter activity was determined using QiANTI-Blue™ kit (Cat. #: rep-qbl, Invivogen, San Diego, California, USA) at a wavelength of 640 nm, a detection medium that turns purple or blue in the presence of alkaline phosphatase.
HEK293-Blue-hTLR9 cells were incubated at a density of 250,000-450,000 cells/mL in a volume of 170 μL in a 96-well plate in Dulbecco's Modified Eagle's medium (DMEM) containing 4.5 g/L glucose, 50 U/mL penicillin, […], […], 10% (v/v) heat-inactivated fetal bovine serum with addition of 20 μL test compound in a serial dilution in the presence of final DMSO at 1% and 10 μL of 20 μM ODN2006 in above DMEM, perform incubation under 37° C. in a C02 incubator for 20 hrs. Then 20 μL of the supernatant from each well was incubated with 180 μl. Quanti-blue substrate solution at 37° C. for 2 h and the absorbance was read at 620˜655 nm using a spectrophotometer. The signaling pathway that TLR9 activation leads to downstream NF-κB activation has been widely accepted, and therefore similar reporter assay was modified for evaluating TLR9 antagonist.

pIC50: −log10 of the molar value.

Regarding `Cc1cc(N2CC[C@H](c3ccc(N4CC[C@@H](N)[C@H](F)C4)cn3)[C@@H](C)C2)c2cnn(C)c2n1` [Example 41, (3R,4R)-1-[6-[(3R,4S)-1-(1,6-dimethylpyrazolo[3,4-b]pyridin-4-yl)-3-methyl-4-piperidyl]-3-pyridyl]-3-fluoro-piperidin-4-amine], in data set [1], the “Clearance of Human microsome” value is 7.2 mL/min/kg. The pIC50 in data set [2] is 6.64.
On the same counts, the results for `Cc1cc(N2CC[C@H](c3ccc(N4CC(C)(N)C4)cn3)[C@@H](C)C2)c2cnn(C)c2n1` [Example 43, 1-[6-[(3R,4S)-1-(1,6-dimethylpyrazolo[3,4-b]pyridin-4-yl)-3-methyl-4-piperidyl]-3-pyridyl]-3-methyl-azetidin-3-amine] are 6.5 mL/min/kg and 6.69.

The values are drawn from patent US20240360126A1, “PYRAZOLO[3,4-B]PYRIDINE COMPOUNDS FOR THE TREATMENT OF AUTOIMMUNE DISEASE” (Hoffmann-La Roche Inc., priority 2021, published 2024).
